Experimental data: paper PMC5053573, “Structure-Based Design of Tetrahydroisoquinoline-7-carboxamides as Selective Discoidin Domain Receptor 1 (DDR1) Inhibitors” (Journal of Medicinal Chemistry, 2016)

How the values were obtained:
Test in all cases: biochemical
Conditions in all cases: read-out: %Ctrl @ 1000nM
CSNK2A2 = CSNK2A2 (Homo sapiens, UniProt P19784)
IRAK3 = IRAK3 (Homo sapiens, UniProt Q9Y616)
RET(V804M) = RET(V804M) (Homo sapiens, UniProt P07949, V804M)
RIPK4 = RIPK4 (Homo sapiens, UniProt P57078)
TEC = TEC (Homo sapiens, UniProt P42680)
CDC2L5 = target: T1, CDC2L5 (Homo sapiens, UniProt Q14004)
T1 construct: gene CDK13

FLT3-autoinhibited = FLT3-autoinhibited (Homo sapiens, UniProt P36888)
PDGFRB = PDGFRB (Homo sapiens, UniProt P09619)
NEK2 = NEK2 (Homo sapiens, UniProt P51955)
Sequence of NEK2 (P51955 whole entry): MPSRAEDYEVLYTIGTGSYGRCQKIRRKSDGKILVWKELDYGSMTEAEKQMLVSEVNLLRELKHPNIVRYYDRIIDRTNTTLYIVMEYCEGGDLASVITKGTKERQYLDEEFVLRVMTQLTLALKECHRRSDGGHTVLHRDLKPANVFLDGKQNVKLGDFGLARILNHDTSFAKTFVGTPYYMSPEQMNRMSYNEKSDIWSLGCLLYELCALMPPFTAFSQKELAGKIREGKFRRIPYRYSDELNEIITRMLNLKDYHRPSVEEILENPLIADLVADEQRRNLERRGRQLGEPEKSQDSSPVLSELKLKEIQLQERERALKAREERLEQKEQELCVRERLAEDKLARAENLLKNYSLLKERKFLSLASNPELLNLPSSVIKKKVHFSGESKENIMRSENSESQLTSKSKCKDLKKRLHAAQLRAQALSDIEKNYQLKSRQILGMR

MYO3A = MYO3A (Homo sapiens, UniProt Q8NEV4)
EPHA6 = EPHA6 (Homo sapiens, UniProt Q9UF33)
NEK9 = NEK9 (Homo sapiens, UniProt Q8TD19)
TNNI3K = TNNI3K (Homo sapiens, UniProt Q59H18)
Sequence of TNNI3K (Q59H18 whole entry): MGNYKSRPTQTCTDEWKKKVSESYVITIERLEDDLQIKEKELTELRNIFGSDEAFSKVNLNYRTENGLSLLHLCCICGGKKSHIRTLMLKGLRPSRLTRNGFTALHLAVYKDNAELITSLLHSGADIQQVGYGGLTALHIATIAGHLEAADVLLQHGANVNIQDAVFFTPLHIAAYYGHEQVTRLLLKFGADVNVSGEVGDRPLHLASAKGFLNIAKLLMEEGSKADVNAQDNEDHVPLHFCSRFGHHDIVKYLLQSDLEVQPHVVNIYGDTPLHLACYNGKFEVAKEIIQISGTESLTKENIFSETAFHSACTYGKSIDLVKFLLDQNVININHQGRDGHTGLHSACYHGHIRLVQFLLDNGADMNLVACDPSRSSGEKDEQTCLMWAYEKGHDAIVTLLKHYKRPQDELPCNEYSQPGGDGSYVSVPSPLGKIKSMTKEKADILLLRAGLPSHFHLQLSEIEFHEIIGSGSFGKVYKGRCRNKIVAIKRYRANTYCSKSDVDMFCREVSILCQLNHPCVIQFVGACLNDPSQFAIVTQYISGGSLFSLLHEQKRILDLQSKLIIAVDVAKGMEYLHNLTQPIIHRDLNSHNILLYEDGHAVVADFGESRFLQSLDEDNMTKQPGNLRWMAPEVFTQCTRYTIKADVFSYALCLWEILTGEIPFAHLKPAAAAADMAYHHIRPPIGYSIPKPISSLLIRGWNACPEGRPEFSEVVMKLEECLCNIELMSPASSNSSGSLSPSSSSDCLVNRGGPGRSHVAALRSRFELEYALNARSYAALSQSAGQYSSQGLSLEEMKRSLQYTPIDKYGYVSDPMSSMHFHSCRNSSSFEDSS

PCTK1 = target: T2, PCTK1 (Homo sapiens, UniProt Q00536)
T2 construct: gene CDK16

HIPK1 = HIPK1 (Homo sapiens, UniProt Q86Z02)
PRKD2 = PRKD2 (Homo sapiens, UniProt Q9BZL6)
BRSK2 = BRSK2 (Homo sapiens, UniProt Q8IWQ3)
Sequence of BRSK2 (Q8IWQ3 whole entry): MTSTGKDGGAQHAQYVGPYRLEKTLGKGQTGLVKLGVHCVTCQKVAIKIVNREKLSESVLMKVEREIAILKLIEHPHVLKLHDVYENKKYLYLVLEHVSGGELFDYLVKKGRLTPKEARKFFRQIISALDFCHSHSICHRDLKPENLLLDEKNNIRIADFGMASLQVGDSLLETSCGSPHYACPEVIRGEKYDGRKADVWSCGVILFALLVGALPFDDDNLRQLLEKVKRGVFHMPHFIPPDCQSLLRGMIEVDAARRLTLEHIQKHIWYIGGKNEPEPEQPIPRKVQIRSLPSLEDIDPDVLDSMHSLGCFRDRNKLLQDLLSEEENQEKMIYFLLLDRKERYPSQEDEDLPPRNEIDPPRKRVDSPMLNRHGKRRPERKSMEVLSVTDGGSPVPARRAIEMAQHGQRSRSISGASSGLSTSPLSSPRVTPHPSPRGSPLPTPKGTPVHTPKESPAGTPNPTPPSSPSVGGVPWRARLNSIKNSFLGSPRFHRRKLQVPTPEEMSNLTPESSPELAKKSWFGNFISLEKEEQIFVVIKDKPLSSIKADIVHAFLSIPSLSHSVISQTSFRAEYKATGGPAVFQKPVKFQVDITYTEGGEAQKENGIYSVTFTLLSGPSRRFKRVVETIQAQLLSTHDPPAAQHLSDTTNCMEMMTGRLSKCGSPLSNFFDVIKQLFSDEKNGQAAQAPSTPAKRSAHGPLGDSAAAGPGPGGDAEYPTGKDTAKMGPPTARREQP

MEK1 = target: T3, MEK1 (Homo sapiens, UniProt Q02750)
T3 construct: gene MAP2K1
T3 sequence (Q02750 whole entry): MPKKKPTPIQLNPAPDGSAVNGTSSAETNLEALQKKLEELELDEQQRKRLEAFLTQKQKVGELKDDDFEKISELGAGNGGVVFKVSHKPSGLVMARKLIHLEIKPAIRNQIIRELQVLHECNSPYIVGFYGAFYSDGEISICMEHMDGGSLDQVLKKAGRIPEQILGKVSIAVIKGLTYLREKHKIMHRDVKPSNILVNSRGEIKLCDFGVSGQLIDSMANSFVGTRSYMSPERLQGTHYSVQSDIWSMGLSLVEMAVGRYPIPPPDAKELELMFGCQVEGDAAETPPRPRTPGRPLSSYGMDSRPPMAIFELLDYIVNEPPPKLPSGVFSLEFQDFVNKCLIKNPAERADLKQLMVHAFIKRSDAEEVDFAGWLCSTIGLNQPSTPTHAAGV

CSNK2A1 = CSNK2A1 (Homo sapiens, UniProt P68400)
MARK4 = MARK4 (Homo sapiens, UniProt Q96L34)
Sequence of MARK4 (Q96L34 whole entry): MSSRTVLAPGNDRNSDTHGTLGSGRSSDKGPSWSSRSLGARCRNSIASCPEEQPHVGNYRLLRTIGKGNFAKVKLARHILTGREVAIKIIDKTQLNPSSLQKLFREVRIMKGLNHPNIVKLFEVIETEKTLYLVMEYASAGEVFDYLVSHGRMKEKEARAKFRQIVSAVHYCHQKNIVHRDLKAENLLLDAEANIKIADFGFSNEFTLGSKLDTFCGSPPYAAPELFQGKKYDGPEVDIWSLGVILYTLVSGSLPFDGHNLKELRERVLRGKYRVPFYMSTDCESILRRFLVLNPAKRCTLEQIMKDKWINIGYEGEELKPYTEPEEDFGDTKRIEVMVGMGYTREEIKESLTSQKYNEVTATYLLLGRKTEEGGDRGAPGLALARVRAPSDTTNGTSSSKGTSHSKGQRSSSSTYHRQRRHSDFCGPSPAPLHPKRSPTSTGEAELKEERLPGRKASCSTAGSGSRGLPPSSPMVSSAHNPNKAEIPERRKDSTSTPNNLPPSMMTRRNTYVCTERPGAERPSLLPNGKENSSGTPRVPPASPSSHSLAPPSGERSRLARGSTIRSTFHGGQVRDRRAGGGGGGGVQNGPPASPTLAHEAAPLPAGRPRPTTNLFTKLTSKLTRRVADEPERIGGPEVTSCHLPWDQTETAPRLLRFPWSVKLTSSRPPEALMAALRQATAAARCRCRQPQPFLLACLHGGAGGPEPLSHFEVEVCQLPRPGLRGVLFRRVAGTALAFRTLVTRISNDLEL

PRKCE = PRKCE (Homo sapiens, UniProt Q02156)
MYO3B = MYO3B (Homo sapiens, UniProt Q8WXR4)
[1] = target: ABL1(Y253F)-phosphorylated (Homo sapiens, UniProt P00519, Y253F)
[2] = target: EGFR(L747-E749del, A750P) (Homo sapiens, UniProt P00533, A750P/DEL747-749)
Sequence of EGFR(L747-E749del, A750P) (P00533 with tags, fused parts or gaps DEL747-749/A750P): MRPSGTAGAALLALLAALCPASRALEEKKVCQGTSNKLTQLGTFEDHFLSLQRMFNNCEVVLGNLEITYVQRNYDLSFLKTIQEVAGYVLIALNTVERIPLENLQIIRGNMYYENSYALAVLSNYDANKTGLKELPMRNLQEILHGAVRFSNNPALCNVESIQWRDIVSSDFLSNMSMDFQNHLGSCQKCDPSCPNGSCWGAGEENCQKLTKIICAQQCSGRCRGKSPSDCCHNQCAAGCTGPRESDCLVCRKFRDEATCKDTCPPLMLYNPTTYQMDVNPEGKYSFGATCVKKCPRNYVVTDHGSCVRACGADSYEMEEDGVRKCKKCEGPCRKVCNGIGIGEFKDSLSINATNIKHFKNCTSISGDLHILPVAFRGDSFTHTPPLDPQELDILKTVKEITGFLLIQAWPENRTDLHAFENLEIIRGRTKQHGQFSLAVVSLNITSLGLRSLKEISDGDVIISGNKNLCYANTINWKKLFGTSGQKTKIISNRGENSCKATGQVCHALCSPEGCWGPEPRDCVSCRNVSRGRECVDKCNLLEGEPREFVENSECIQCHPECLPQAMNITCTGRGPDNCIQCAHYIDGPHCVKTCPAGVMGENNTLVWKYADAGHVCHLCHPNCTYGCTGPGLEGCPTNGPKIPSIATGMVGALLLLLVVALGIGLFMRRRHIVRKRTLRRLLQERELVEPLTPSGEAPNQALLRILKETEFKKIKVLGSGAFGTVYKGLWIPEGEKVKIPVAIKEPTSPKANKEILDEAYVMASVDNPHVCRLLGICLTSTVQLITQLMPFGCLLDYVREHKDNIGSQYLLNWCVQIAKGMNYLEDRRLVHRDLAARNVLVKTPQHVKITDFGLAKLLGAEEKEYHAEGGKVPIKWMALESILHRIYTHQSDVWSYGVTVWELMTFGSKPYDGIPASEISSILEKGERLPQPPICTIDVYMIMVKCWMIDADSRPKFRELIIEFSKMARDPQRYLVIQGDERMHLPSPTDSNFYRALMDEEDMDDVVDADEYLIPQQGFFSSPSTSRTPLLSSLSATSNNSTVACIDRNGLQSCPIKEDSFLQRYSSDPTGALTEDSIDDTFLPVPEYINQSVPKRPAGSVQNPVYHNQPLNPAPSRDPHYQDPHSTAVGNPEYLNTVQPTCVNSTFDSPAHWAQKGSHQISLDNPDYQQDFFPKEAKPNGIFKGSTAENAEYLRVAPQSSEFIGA

LATS2 = LATS2 (Homo sapiens, UniProt Q9NRM7)
INSRR = INSRR (Homo sapiens, UniProt P14616)
CDK3 = CDK3 (Homo sapiens, UniProt Q00526)
Sequence of CDK3 (Q00526 whole entry): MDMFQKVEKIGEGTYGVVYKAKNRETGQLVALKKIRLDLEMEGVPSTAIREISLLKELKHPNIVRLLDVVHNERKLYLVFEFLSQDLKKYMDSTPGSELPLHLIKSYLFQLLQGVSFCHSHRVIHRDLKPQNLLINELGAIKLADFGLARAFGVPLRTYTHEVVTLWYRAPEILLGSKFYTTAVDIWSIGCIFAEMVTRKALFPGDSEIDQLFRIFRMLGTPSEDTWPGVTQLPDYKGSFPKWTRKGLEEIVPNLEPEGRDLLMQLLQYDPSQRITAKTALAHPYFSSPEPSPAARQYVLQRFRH

PAK3 = PAK3 (Homo sapiens, UniProt O75914)
LIMK2 = LIMK2 (Homo sapiens, UniProt P53671)
HIPK4 = HIPK4 (Homo sapiens, UniProt Q8NE63)
FLT3(ITD) = FLT3(ITD) (Homo sapiens, UniProt P36888, ITD)
EPHA3 = EPHA3 (Homo sapiens, UniProt P29320)
RET = RET (Homo sapiens, UniProt P07949)
DYRK1A = DYRK1A (Homo sapiens, UniProt Q13627)
CLK4 = CLK4 (Homo sapiens, UniProt Q9HAZ1)

Sequence of CSNK2A2 (P19784 whole entry): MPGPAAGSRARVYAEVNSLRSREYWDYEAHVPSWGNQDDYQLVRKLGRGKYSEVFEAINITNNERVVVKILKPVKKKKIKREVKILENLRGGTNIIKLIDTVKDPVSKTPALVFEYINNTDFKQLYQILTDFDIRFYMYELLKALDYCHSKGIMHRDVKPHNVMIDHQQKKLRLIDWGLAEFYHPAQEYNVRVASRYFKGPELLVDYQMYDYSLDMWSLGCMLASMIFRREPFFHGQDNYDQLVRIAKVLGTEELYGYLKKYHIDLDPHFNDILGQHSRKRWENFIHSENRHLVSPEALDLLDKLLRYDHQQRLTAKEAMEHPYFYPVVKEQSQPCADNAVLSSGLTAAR

remaining activity at 1 µM (CSNK2A2): 93% | remaining activity at 1 µM (IRAK3): 86% | remaining activity at 1 µM (RET(V804M)): 100% | remaining activity at 1 µM (RIPK4): 100% | remaining activity at 1 µM (TEC): 96% | remaining activity at 1 µM (CDC2L5): 100% | remaining activity at 1 µM (FLT3-autoinhibited): 100% | remaining activity at 1 µM (PDGFRB): 82% | remaining activity at 1 µM (NEK2): 95% | remaining activity at 1 µM (MYO3A): 93% | remaining activity at 1 µM (EPHA6): 58% | remaining activity at 1 µM (TNNI3K): 65% | remaining activity at 1 µM (PCTK1): 100% | remaining activity at 1 µM (HIPK1): 85% | remaining activity at 1 µM (PRKD2): 92% | remaining activity at 1 µM (BRSK2): 94% | remaining activity at 1 µM (MEK1): 94% | remaining activity at 1 µM (CSNK2A1): 100% | remaining activity at 1 µM (MARK4): 100% | remaining activity at 1 µM (PRKCE): 100% | remaining activity at 1 µM (MYO3B): 85% | remaining activity at 1 µM [1]: 98% | remaining activity at 1 µM [2]: 92% | remaining activity at 1 µM (LATS2): 100% | remaining activity at 1 µM (INSRR): 100% | remaining activity at 1 µM (CDK3): 97% | remaining activity at 1 µM (PAK3): 79% | remaining activity at 1 µM (LIMK2): 100% | remaining activity at 1 µM (HIPK4): 87% | remaining activity at 1 µM (FLT3(ITD)): 71% | remaining activity at 1 µM (EPHA3): 55% | remaining activity at 1 µM (RET): 94% | remaining activity at 1 µM (DYRK1A): 100% | remaining activity at 1 µM (CLK4): 96%
SMILES: Cc1cn(-c2cc(NC(=O)c3ccc4c(c3)CN(c3cncnc3)C[C@@H]4C)cc(C(F)(F)F)c2)cn1 [Compound 6j]
remaining activity at 1 µM (NEK9): 85%
